Assay results published in the supplement of paper PMC11208160.

Experiment: recombinant barcode read abundance after kanamycin selection (control-corrected) (log10(CPM+1)); higher = more efficient recombination; sequences stand for … in AGTGCAGAGAAAATCGGCCAGTTTTCTCTGCCTGCAGTCCGCATGCCGT…AGATTTATGCAGCGGACTGCCTTTCTCCCAAAGTGATAAACCGGACAGTATCATGGACCGGTTTTCCCGGTAATCCGTATTTGCAAGGTTGGTTTCACT; site = the 11-nt target
Procedure, shortened: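 Targets and IS621 bridge RNA target-binding loops were paired in oligos, each with a promoter, a barcode and the J23119-driven first 104 bridge RNA bases. A vector carrying the remaining 73 bp and a T7-inducible recombinase received these by Gibson cloning, and the pool was co-electroporated into E. coli with a donor plasmid. Duplicate plates contained chloramphenicol/ampicillin LB agar (control) or chloramphenicol/ampicillin/kanamycin with 0.1 mM IPTG. Recombination efficiency comes from averaged, control-corrected counts per million of recombinant-junction barcodes, reported as log10(CPM+1).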
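Also: IS621 recombinase and bridge RNA in Escherichia coli cells.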

Compared with “CAAGTGGCTTGGGTTCTAACCTGTTGCCT (site CAAGTGGCTAG)”, “CAAGTGGCTTGGGTTCTAACCTGTTGCCT (site CAAGTTGCTAG)” is lower in “recombinant barcode read abundance (log10)” value: 1.21 for the first, 0.721 for the second.

Compared with “CAATATCCTTGGGTTCTAACCTGTTGCCT (site CAATATCCTAG)”, “CAATATCCTTGGGTTCTAACCTGTTGCCT (site CACTATCCTAG)” is lower in “recombinant barcode read abundance (log10)” value: 1.09 for the first, 0.0197 for the second.

“CAATATCCTTGGGTTCTAACCTGTTGCCT (site CAGTATCCTAG)” and “CAATATCCTTGGGTTCTAACCTGTTGCCT (site CATTATCCTAG)” are within 0.2 log units of each other in “recombinant barcode read abundance (log10)” value: 0.143 for the first, 0.0807 for the second.

Going from “CAATCTACTTGGGTTCTAACCTGTTGCCT (site CAACCTACTAG)” to “CAATCTACTTGGGTTCTAACCTGTTGCCT (site CAATCTACTAG)”, the “recombinant barcode read abundance (log10)” value falls from 0.391 to 0.0558.

Going from “CAATTACCTTGGGTTCTAACCTGTTGCTT (site CAATTACCTAA)” to “CAATTACCTTGGGTTCTAACCTGTTGCTT (site GCGCCCTCTCG)”, the “recombinant barcode read abundance (log10)” value falls from 0.682 to 0.0793.

Compared with “CACAAACCTTGGGTTCTAACCTGTTGCAG (site AGATGTGCTAG)”, “CACAAACCTTGGGTTCTAACCTGTTGCAG (site CACAAACCTCT)” is higher in “recombinant barcode read abundance (log10)” value: 0.054 for the first, 1.17 for the second.

Going from “CACAAGTCTTGGGTTCTAACCTGTTGCAG (site CACAAGTCTCG)” to “CACAAGTCTTGGGTTCTAACCTGTTGCAG (site CACAAGTCTCT)”, the “recombinant barcode read abundance (log10)” value rises from 0.519 to 2.

Going from “CACAAGTCTTGGGTTCTAACCTGTTGCCG (site CACAAGTCTCG)” to “CACAAGTCTTGGGTTCTAACCTGTTGCCG (site CACAAGTCTCT)”, the “recombinant barcode read abundance (log10)” value falls from 0.657 to 0.182.

Compared with “CACACACCTTGGGTTCTAACCTGTTGCGT (site CACAATCCTAC)”, “CACACACCTTGGGTTCTAACCTGTTGCGT (site CACACACCTAC)” is higher in “recombinant barcode read abundance (log10)” value: 0.189 for the first, 2.86 for the second.

First: CACACGGCTTGGGTTCTAACCTGTTGCCT (site CACACCGCTAG)
Second: CACACGGCTTGGGTTCTAACCTGTTGCCT (site CACACGGCTAG)
The “recombinant barcode read abundance (log10)” value of the first is lower: 0.246 for the first, 0.518 for the second.

“CACACTACTTGGGTTCTAACCTGTTGCTT (site CACACTACTAA)” and “CACACTACTTGGGTTCTAACCTGTTGCTT (site TATACTACTAA)” are within 0.2 log units of each other in “recombinant barcode read abundance (log10)” value: 0.0581 for the first, 0.101 for the second.

“CACAGCACTTGGGTTCTAACCTGTTGCCT (site CACAACACTAG)” and “CACAGCACTTGGGTTCTAACCTGTTGCCT (site CACACCACTAG)” are within 0.2 log units of each other in “recombinant barcode read abundance (log10)” value: 0.065 for the first, 0.00856 for the second.

First: CACAGCACTTGGGTTCTAACCTGTTGCCT (site CACAGCACTAG)
Second: CACAGCACTTGGGTTCTAACCTGTTGCCT (site CACATCACTAG)
The “recombinant barcode read abundance (log10)” value of the first is higher: 1.44 for the first, 0.0547 for the second.

Going from “CACAGGCCTTGGGTTCTAACCTGTTGCAG (site CACAGGCCTCT)” to “CACAGGCCTTGGGTTCTAACCTGTTGCAG (site TGTTCAGCTAG)”, the “recombinant barcode read abundance (log10)” value falls from 1.98 to 0.0715.

First: CACATACCTTGGGTTCTAACCTGTTGCAT (site CACATACCTAT)
Second: CACATACCTTGGGTTCTAACCTGTTGCAT (site CACCTTCCTAT)
The “recombinant barcode read abundance (log10)” value of the first is higher: 1.87 for the first, 0.0683 for the second.

“CACATCACTTGGGTTCTAACCTGTTGCCT (site CACAACACTAG)” and “CACATCACTTGGGTTCTAACCTGTTGCCT (site CACACCACTAG)” are within 0.2 log units of each other in “recombinant barcode read abundance (log10)” value: 0.122 for the first, 0.225 for the second.

Compared with “CACATCACTTGGGTTCTAACCTGTTGCCT (site CACAGCACTAG)”, “CACATCACTTGGGTTCTAACCTGTTGCCT (site CACATCACTAG)” is higher in “recombinant barcode read abundance (log10)” value: 0.0683 for the first, 0.704 for the second.

Going from “CACATGCCTTGGGTTCTAACCTGTTGCTG (site CACATGCCTCA)” to “CACATGCCTTGGGTTCTAACCTGTTGCTG (site TTGTACACTGG)”, the “recombinant barcode read abundance (log10)” value falls from 2 to 0.0315.

First: CACCAGACTTGGGTTCTAACCTGTTGCCA (site ACAATCTCTGA)
Second: CACCAGACTTGGGTTCTAACCTGTTGCCA (site CACCAGACTTG)
The “recombinant barcode read abundance (log10)” value of the first is lower: 0.0296 for the first, 0.539 for the second.

First: CACCCACCTTGGGTTCTAACCTGTTGCCT (site AACCCACCTAG)
Second: CACCCACCTTGGGTTCTAACCTGTTGCCT (site CACCCACCTAG)
The “recombinant barcode read abundance (log10)” value of the first is lower: 0.0311 for the first, 1.66 for the second.

“CACCCACCTTGGGTTCTAACCTGTTGCCT (site GACCCACCTAG)” and “CACCCACCTTGGGTTCTAACCTGTTGCCT (site TACCCACCTAG)” are within 0.2 log units of each other in “recombinant barcode read abundance (log10)” value: 0.0974 for the first, 0.0304 for the second.

Compared with “CACCCTTCTTGGGTTCTAACCTGTTGCTC (site CACCCTTCTGA)”, “CACCCTTCTTGGGTTCTAACCTGTTGCTC (site TCTGGCCCTAG)” is lower in “recombinant barcode read abundance (log10)” value: 1.94 for the first, 0.0488 for the second.

Compared with “CACCGAGCTTGGGTTCTAACCTGTTGCTA (site CACCGAGCTTA)”, “CACCGAGCTTGGGTTCTAACCTGTTGCTA (site TTGACGACTCG)” is lower in “recombinant barcode read abundance (log10)” value: 0.528 for the first, 0.177 for the second.

Going from “CACCTTCCTTGGGTTCTAACCTGTTGCAT (site CACATACCTAT)” to “CACCTTCCTTGGGTTCTAACCTGTTGCAT (site CACCTTCCTAT)”, the “recombinant barcode read abundance (log10)” value rises from 0.196 to 1.77.

First: CACGACCCTTGGGTTCTAACCTGTTGCCT (site CAAGACCCTAG)
Second: CACGACCCTTGGGTTCTAACCTGTTGCCT (site CACGACCCTAG)
The “recombinant barcode read abundance (log10)” value of the first is lower: 0.0526 for the first, 2.05 for the second.

“CACGACCCTTGGGTTCTAACCTGTTGCCT (site CAGGACCCTAG)” and “CACGACCCTTGGGTTCTAACCTGTTGCCT (site CATGACCCTAG)” are within 0.2 log units of each other in “recombinant barcode read abundance (log10)” value: 0.0694 for the first, 0.16 for the second.

Compared with “CACGAGGCTTGGGTTCTAACCTGTTGCCT (site CACGAGACTAG)”, “CACGAGGCTTGGGTTCTAACCTGTTGCCT (site CACGAGCCTAG)” is lower in “recombinant barcode read abundance (log10)” value: 0.707 for the first, 0.0831 for the second.

First: CACGAGGCTTGGGTTCTAACCTGTTGCCT (site CACGAGGCTAG)
Second: CACGAGGCTTGGGTTCTAACCTGTTGCCT (site CACGAGTCTAG)
The “recombinant barcode read abundance (log10)” value of the first is higher: 0.527 for the first, 0.322 for the second.

Compared with “CACGATGCTTGGGTTCTAACCTGTTGCCT (site CAAGATGCTAG)”, “CACGATGCTTGGGTTCTAACCTGTTGCCT (site CACGATGCTAG)” is higher in “recombinant barcode read abundance (log10)” value: 0.437 for the first, 0.789 for the second.

“CACGATGCTTGGGTTCTAACCTGTTGCCT (site CAGGATGCTAG)” and “CACGATGCTTGGGTTCTAACCTGTTGCCT (site CATGATGCTAG)” are within 0.2 log units of each other in “recombinant barcode read abundance (log10)” value: 0.226 for the first, 0.351 for the second.

Compared with “CACGCTTCTTGGGTTCTAACCTGTTGCTA (site CACGCGTCTCA)”, “CACGCTTCTTGGGTTCTAACCTGTTGCTA (site CACGCTTCTTA)” is higher in “recombinant barcode read abundance (log10)” value: 0.0477 for the first, 1.01 for the second.

Going from “CACGGTCCTTGGGTTCTAACCTGTTGCCT (site CACGGTCCTAG)” to “CACGGTCCTTGGGTTCTAACCTGTTGCCT (site CTCGGTGCTAG)”, the “recombinant barcode read abundance (log10)” value falls from 2.13 to 0.0233.

Compared with “CACTCTCCTTGGGTTCTAACCTGTTGCAT (site CACTCTCCTAG)”, “CACTCTCCTTGGGTTCTAACCTGTTGCAT (site CACTCTCCTAT)” is higher in “recombinant barcode read abundance (log10)” value: 0.11 for the first, 0.728 for the second.

Compared with “CACTGGTCTTGGGTTCTAACCTGTTGCCT (site CACTGATCTAG)”, “CACTGGTCTTGGGTTCTAACCTGTTGCCT (site CACTGCTCTAG)” is lower in “recombinant barcode read abundance (log10)” value: 0.532 for the first, 0.0756 for the second.

Going from “CACTGGTCTTGGGTTCTAACCTGTTGCCT (site CACTGGTCTAG)” to “CACTGGTCTTGGGTTCTAACCTGTTGCCT (site CACTGTTCTAG)”, the “recombinant barcode read abundance (log10)” value falls from 1.12 to 0.0874.

“CACTTATCTTGGGTTCTAACCTGTTGCCT (site CACTTAACTAG)” and “CACTTATCTTGGGTTCTAACCTGTTGCCT (site CACTTACCTAG)” are within 0.2 log units of each other in “recombinant barcode read abundance (log10)” value: 0.149 for the first, 0.308 for the second.

Going from “CACTTATCTTGGGTTCTAACCTGTTGCCT (site CACTTAGCTAG)” to “CACTTATCTTGGGTTCTAACCTGTTGCCT (site CACTTATCTAG)”, the “recombinant barcode read abundance (log10)” value rises from 0.0751 to 0.549.

Compared with “CACTTGCCTTGGGTTCTAACCTGTTGCCT (site CACTTGACTAG)”, “CACTTGCCTTGGGTTCTAACCTGTTGCCT (site CACTTGCCTAG)” is higher in “recombinant barcode read abundance (log10)” value: 0.0347 for the first, 0.754 for the second.

Going from “CACTTGCCTTGGGTTCTAACCTGTTGCCT (site CACTTGGCTAG)” to “CACTTGCCTTGGGTTCTAACCTGTTGCCT (site CACTTGTCTAG)”, the “recombinant barcode read abundance (log10)” value rises from 0.0743 to 0.614.

Going from “CACTTGGCTTGGGTTCTAACCTGTTGCAG (site CACTGGGCTCT)” to “CACTTGGCTTGGGTTCTAACCTGTTGCAG (site CACTTGGCTCT)”, the “recombinant barcode read abundance (log10)” value rises from 0.468 to 0.706.

First: CAGAAGCCTTGGGTTCTAACCTGTTGCCT (site AAGAAGCCTAG)
Second: CAGAAGCCTTGGGTTCTAACCTGTTGCCT (site CAGAAGCCTAG)
The “recombinant barcode read abundance (log10)” value of the first is lower: 0.661 for the first, 1.65 for the second.

“CAGAAGCCTTGGGTTCTAACCTGTTGCCT (site GAGAAGCCTAG)” and “CAGAAGCCTTGGGTTCTAACCTGTTGCCT (site TAGAAGCCTAG)” are within 0.2 log units of each other in “recombinant barcode read abundance (log10)” value: 0.193 for the first, 0.0644 for the second.

“CAGACTTCTTGGGTTCTAACCTGTTGCCT (site CAGACTTCTAG)” and “CAGACTTCTTGGGTTCTAACCTGTTGCCT (site CCGACTTCTAG)” are within 0.2 log units of each other in “recombinant barcode read abundance (log10)” value: 0.473 for the first, 0.375 for the second.
